Data set [1] can be described thus: Cmax in cannulated Sprague-Dawley rat assessed as (S)-(5S,10S,11S,14S)-11-Benzyl-5,14-di-tert-butyl-3,6,13,16-tetraoxo-8-(4-(pyridin-2-yl)benzyl)-2,17-dioxa-4,7,8,12,15-pentaazaoctadecan-10-yl 2-amino-3-methylbutanoate level at 3 mg/kg equiv of atazanavir administered orally by UPLC/MS/MS analysis. Particulars: in vivo, po. It is filed as ADME, organism-based. Also noted: dose 3 mg/kg, route oral.

Data set [2] is described as follows: Tmax in cannulated Sprague-Dawley rat assessed as (S)-(5S,10S,11S,14S)-11-Benzyl-5,14-di-tert-butyl-3,6,13,16-tetraoxo-8-(4-(pyridin-2-yl)benzyl)-2,17-dioxa-4,7,8,12,15-pentaazaoctadecan-10-yl 2-amino-3-methylbutanoate level at 3 mg/kg equiv of atazanavir administered orally by UPLC/MS/MS analysis. It is filed as ADME, organism-based. As to conditions: in vivo, po.

The nature of data set [3]: AUClast in cannulated Sprague-Dawley rat assessed as (S)-(5S,10S,11S,14S)-11-Benzyl-5,14-di-tert-butyl-3,6,13,16-tetraoxo-8-(4-(pyridin-2-yl)benzyl)-2,17-dioxa-4,7,8,12,15-pentaazaoctadecan-10-yl 2-amino-3-methylbutanoate level at 3 mg/kg equiv of atazanavir administered orally by UPLC/MS/MS analysis. As to conditions: in vivo, po. Also noted: dose 3 mg/kg, time 0 - last, route oral. Format: ADME, organism-based.

Another data set concerns the target Protease (Human immunodeficiency virus 1, UniProt Q9YQ12).
The conditions of data set [4]: rat, in vivo, po, 3 mg/kg.
The conditions of data set [5]: rat, in vivo, po, 3 mg/kg. This is another data set of the same source.
The conditions of data set [6]: rat, in vivo, po, 3 mg/kg. The source holds these as a separate data set.
Description: AUClast in cannulated Sprague-Dawley rat assessed as atazanavir level at 3 mg/kg equiv of atazanavir administered orally by UPLC/MS/MS analysis
Data set [7] deals with Human immunodeficiency virus 1.
Description: (§1) Antiviral activity against HIV1 NL4-3 infected in human MT2 cells assessed as reduction in viral yield measured after 4 days by EnduRen live cell substrate based luciferase reporter gene assay
Data set [8] in a line: physchem. As to conditions: 30% CH3CN/HCl buffer, pH 1.
Description: Half life in pH 1 30%CH3CN/HCl buffer at 50 mM by RP-UPLC analysis
A short description of data set [9]: physchem. As to conditions: 30% CH3CN/acetate buffer, pH 4.
Description: Half life in pH 4 30%CH3CN/acetate buffer at 50 mM by RP-UPLC analysis
Data set [10] is described as follows: physchem. Particulars: 30% CH3CN/phosphate buffer, pH 6.5.
Description: Half life in pH 6.5 30%CH3CN/phosphate buffer at 50 mM by RP-UPLC analysis
Data set [11] in a line: physchem. As to conditions: HCl buffer, pH 1.
Description: Aqueous solubility of the compound in pH 1 HCl buffer by RP-UPLC analysis
The nature of data set [12]: physchem. Particulars: acetate buffer, pH 4.
Description: Aqueous solubility of the compound in pH 4 acetate buffer by RP-UPLC analysis
A short description of data set [13]: physchem. As to conditions: phosphate buffer, pH 6.5.
Description: Aqueous solubility of the compound in pH 6.5 phosphate buffer by RP-UPLC analysis
A short description of data set [14]: Aqueous solubility of the compound in pH 3 buffer by RP-UPLC analysis. Format: physicochemical.
Data set [15] can be described thus: Aqueous solubility of the compound in pH 4 citrate buffer by RP-UPLC analysis. Format: physicochemical.
A short description of data set [16]: Aqueous solubility of the compound in pH 5 buffer by RP-UPLC analysis. Format: physicochemical.
Data set [17] can be described thus: Elimination half life in rat hepatocytes at 1 uM in absence of esterase inhibitor PMSF/CYP450 inhibitor ABT. Format: ADME, cell-based, Hepatocyte. Particulars: read-out: beta t1/2.
Data set [18] is described as follows: Prodrug conversion in mesenteric vein plasma of closed loop rat intestinal model assessed as atazanavir recovery at 1 mg/kg administered as cassette dose by LC/MS analysis. Format: ADME, organism-based. Particulars: in vivo.
Data set [19] can be described thus: Prodrug conversion in intestinal homogenates of closed loop rat intestinal model assessed as atazanavir recovery at 1 mg/kg administered as cassette dose by LC/MS analysis. Format: ADME, organism-based, Intestine. As to conditions: in vivo.
Data set [20] can be described thus: Prodrug conversion in intestinal content of closed loop rat intestinal model assessed as atazanavir recovery at 1 mg/kg administered as cassette dose by LC/MS analysis. Format: ADME, organism-based. As to conditions: in vivo.
Data set [21] deals with T1, UDP-glucuronosyltransferase 1A1 (Homo sapiens, UniProt P22309).
T1 sequence (P22309 whole entry): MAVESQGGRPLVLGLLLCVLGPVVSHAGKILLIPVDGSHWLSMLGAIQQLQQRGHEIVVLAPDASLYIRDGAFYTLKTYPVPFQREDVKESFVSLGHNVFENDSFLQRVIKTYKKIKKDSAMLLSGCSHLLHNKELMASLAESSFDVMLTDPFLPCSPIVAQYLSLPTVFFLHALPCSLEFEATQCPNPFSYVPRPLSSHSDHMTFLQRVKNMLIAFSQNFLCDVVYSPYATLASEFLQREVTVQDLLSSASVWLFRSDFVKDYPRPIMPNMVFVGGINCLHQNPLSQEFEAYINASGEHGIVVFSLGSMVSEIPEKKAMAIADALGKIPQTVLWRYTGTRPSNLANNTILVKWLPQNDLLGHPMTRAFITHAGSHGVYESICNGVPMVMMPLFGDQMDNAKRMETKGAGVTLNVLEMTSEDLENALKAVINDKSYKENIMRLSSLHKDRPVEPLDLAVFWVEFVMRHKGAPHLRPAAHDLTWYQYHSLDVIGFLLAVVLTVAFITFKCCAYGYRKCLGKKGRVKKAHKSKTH
The data set can be described thus: Inhibition of recombinant human UGT1A1 using bilirubin as substrate preincubated for 5 mins followed by substrate addition and measured after 40 mins by LC-MS/MS analysis. Format: ADME.

Data set [22] has as its target T2, UDP-glucuronosyltransferase 1A1 (Rattus norvegicus, UniProt Q64550).
T2 sequence (Q64550 whole entry): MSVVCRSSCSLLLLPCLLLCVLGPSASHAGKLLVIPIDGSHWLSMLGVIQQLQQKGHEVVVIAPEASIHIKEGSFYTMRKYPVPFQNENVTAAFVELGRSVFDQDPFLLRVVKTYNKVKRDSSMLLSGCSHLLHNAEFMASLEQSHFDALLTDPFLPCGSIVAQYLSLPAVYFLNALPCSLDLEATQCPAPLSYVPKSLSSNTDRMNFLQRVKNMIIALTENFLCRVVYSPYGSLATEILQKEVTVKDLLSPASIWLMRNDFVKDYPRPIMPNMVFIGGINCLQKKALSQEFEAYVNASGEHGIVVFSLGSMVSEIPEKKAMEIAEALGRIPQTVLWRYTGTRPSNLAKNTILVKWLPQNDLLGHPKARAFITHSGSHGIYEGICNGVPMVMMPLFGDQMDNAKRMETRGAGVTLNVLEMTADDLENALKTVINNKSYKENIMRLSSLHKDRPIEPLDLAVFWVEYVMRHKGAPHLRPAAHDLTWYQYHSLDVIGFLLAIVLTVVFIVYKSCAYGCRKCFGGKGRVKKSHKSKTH
The data set can be described thus: Inhibition of recombinant rat UGT1A1 using beta-estradiol as substrate preincubated for 5 mins followed by substrate addition and measured after 40 mins by LC-MS/MS analysis. Format: ADME.

Data set [23] concerns the target T1, UDP-glucuronosyltransferase 1A1. The data set is described as follows: Inhibition of UGT1A1 in human liver microsomes using beta-estradiol as substrate preincubated for 5 mins followed by substrate addition and measured after 40 mins by LC-MS/MS analysis. Format: ADME. (Liver microsomes are vesicles of endoplasmic reticulum, rich in cytochrome P450 enzymes.)

For data set [24], the target named is T2, UDP-glucuronosyltransferase 1A1. The data set is described as follows: Inhibition of UGT1A1 in rat liver microsomes using beta-estradiol as substrate preincubated for 5 mins followed by substrate addition and measured after 40 mins by LC-MS/MS analysis. It is filed as ADME.
Data set [25] in a line: Drug recovery in feces of po dosed human. As to conditions: faeces, read-out: Drug recovery. It is filed as ADME, organism-based.
The nature of data set [26]: Oral bioavailability in rat. It is filed as ADME, organism-based. Particulars: in vivo.
A short description of data set [27]: Oral bioavailability in dog. Format: ADME, organism-based, Canis lupus familiaris. Particulars: in vivo.
Data set [28] in a line: Drug recovery in feces of po dosed rat. Particulars: faeces, read-out: Drug recovery. Format: ADME, organism-based.
A short description of data set [29]: Drug recovery in feces of po dosed dog. Particulars: faeces, read-out: Drug recovery. It is filed as ADME, organism-based, Canis lupus familiaris.
Data set [30] in a line: Dissociation constant, pKa of the compound. Format: physicochemical.
Data set [31] in a line: physchem. As to conditions: phosphate buffer, pH 7.4.
Description: Aqueous solubility of the compound in pH 7.4 phosphate buffer by RP-UPLC analysis
Data set [32] is described as follows: in vitro. Particulars: human, Caco-2.
Description: Apparent permeability across apical to basolateral side in human Caco2 cells at 2 uM
Data set [33] can be described thus: in vitro. Particulars: human, Caco-2. The source holds these as a separate data set.
Description: Apparent permeability across basolateral to apical side in human Caco2 cells at 2 uM
A short description of data set [34]: in vitro. As to conditions: human, Caco-2. This is another data set of the same source.
Description: Efflux ratio of apparent permeability across basolateral to apical side over apical to basolateral side in human Caco2 cells
The test system of data set [35] is Human immunodeficiency virus 1. The data set is described as follows: microbe, parasite or virus in culture. Particulars: Human immunodeficiency virus 1, NL4-3, MT2, 96 h.
Description: as §1
Data set [36] in a line: Cmax in cannulated Sprague-Dawley rat assessed as (R)-(5S,10S,11S,14S)-11-Benzyl-5,14-di-tert-butyl-3,6,13,16-tetraoxo-8-(4-(pyridin-2-yl)benzyl)-2,17-dioxa-4,7,8,12,15-pentaazaoctadecan-10-yl 2-Amino-3-methylbutanoate level at 3 mg/kg equiv of atazanavir administered orally by UPLC/MS/MS analysis. Also noted: dose 3 mg/kg, route oral. Format: ADME, organism-based. Particulars: in vivo, po.

The nature of data set [37]: Tmax in cannulated Sprague-Dawley rat assessed as (R)-(5S,10S,11S,14S)-11-Benzyl-5,14-di-tert-butyl-3,6,13,16-tetraoxo-8-(4-(pyridin-2-yl)benzyl)-2,17-dioxa-4,7,8,12,15-pentaazaoctadecan-10-yl 2-Amino-3-methylbutanoate level at 3 mg/kg equiv of atazanavir administered orally by UPLC/MS/MS analysis. It is filed as ADME, organism-based. As to conditions: in vivo, po.

Values after ≈ are worked out from the molar mass of the structure shown. A value given as a limit tells only on which side of the number the result lay.

One may read the Cmax as the peak of the concentration-time curve. As usually defined, the Tmax is the time from dosing to the highest level. As a reminder, the IC50 is the point on the concentration scale where inhibition reaches its midpoint. Usually EC50 stands for the concentration that produces a half-maximal response. Higher therefore signals a need for much substance. A word on the solubility: it is the concentration that dissolves in the medium under given conditions. Low readings indicate little dissolved substance, high ones much dissolved substance. For orientation: bioavailability means the share of a dose that reaches the circulation, judged against a reference dose that is usually intravenous. One may read the pKa as the pH at which an ionisable group is half protonated. Lower therefore signals a group that gives up its proton readily. In general, Papp A→B refers to how fast a substance crosses the layer from the apical side. The term Papp B→A denotes the apparent permeability from the basolateral to the apical side of a cell layer. The term efflux ratio denotes the permeability from basolateral to apical divided by that in the opposite direction, in the common usage.

Sequence of Protease (Q9YQ12 whole entry): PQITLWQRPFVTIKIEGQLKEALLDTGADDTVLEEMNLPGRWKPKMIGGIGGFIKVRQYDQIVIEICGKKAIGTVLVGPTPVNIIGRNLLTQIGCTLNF
Description for Protease: Inhibition of HIV1 protease activity

As for `COC(=O)N[C@H](C(=O)N[C@@H](Cc1ccccc1)[C@H](CN(Cc1ccc(-c2ccccn2)cc1)NC(=O)[C@@H](NC(=O)OC)C(C)(C)C)OC(=O)[C@@H](NC(=O)[C@@H](N)C(C)C)C(C)C)C(C)(C)C`, the figures for the highest concentration (Cmax) in data set [1] and in data set [4] were 30 nM and 4 nM, respectively. Moreover, the Tmax in [2] is 0.12 days; in [5] it was 0.21 days. Further, the figures for the AUClast in data set [3] and in data set [6] were 0.085 µM·h and 0.02 µM·h, respectively. The compound also registered an IC50 against Protease of 4 to 1140 nM. Moreover, in data set [7], the EC50 lay within 0.9 to 1250 nM. The half-life at 50000 µM in “physchem [8]”, in the data set “physchem [9]” and in the data set “physchem [10]” was more than 20.8 days each time. Moreover, the figures for the solubility in the data set “physchem [11]”, in the data set “physchem [12]” and in “physchem [13]” were more than 2150 µg/mL, more than 1200 µg/mL and 780 µg/mL (≈ 864 µM), respectively.

Turning to `COC(=O)N[C@H](C(=O)N[C@@H](Cc1ccccc1)[C@@H](O)CN(Cc1ccc(-c2ccccn2)cc1)NC(=O)[C@@H](NC(=O)OC)C(C)(C)C)C(C)(C)C` [ATAZANAVIR], the solubility is 28 µg/mL (≈ 39.7 µM) in data set [14], less than 1 µg/mL in data set [15], less than 1 µg/mL in data set [16] and less than 1 µg/mL in the data set “physchem [31]”. Also, the half-life at 1 µM in [17] was found to be 0.0187 days. Moreover, the figures for the Drug recovery in data set [18], in data set [19] and in data set [20] were 1.4%, 1.6% and 16.1%, respectively. The IC50 in data set [21] came to 300 nM; in data set [22], 4200 nM; in data set [23] it was 600 nM; in data set [24], 3400 nM; against Protease, 0.3 nM. The figures for the dose excreted in data set [25], in [28] and in data set [29] were 79%, 39% and 79%, respectively. For the same compound, the results for the bioavailability in [26] and in data set [27] were 15% and 36%, respectively. The same compound displayed a pKa in data set [30] of 4.7. The compound also showed a Papp A→B at 2 µM in the data set “in vitro [32]” of less than 1.5 ×10⁻⁶ cm/s. Also, the apparent permeability from basolateral to apical (Papp B→A) at 2 µM in the data set “in vitro [33]” came out at 20.3 ×10⁻⁶ cm/s. The efflux ratio in “in vitro [34]” was more than 14. In addition, in data set [35], a half-maximal effect (EC50) was put at 0.7 nM.

With `COC(=O)N[C@H](C(=O)N[C@@H](Cc1ccccc1)[C@H](CN(Cc1ccc(-c2ccccn2)cc1)NC(=O)[C@@H](NC(=O)OC)C(C)(C)C)OC(=O)[C@H](NC(=O)[C@H](N)C(C)C)C(C)C)C(C)(C)C`, the maximum concentration (Cmax) in data set [36] came out at 1430 nM; in data set [4], 12 nM. The Tmax in [37] turned out to be 0.021 days; in [5], 0.042 days. At Protease, this compound returned an IC50 of 4 to 1140 nM. In addition, the AUClast in data set [6] was 0.053 µM·h. In addition, the concentration giving a half-maximal response (EC50) in [7] lay in the range of 0.9 to 1250 nM. Besides, the half-life at 50000 µM in “physchem [8]”, in “physchem [9]” and in the data set “physchem [10]” was more than 20.8 days in each case. The solubility in the data set “physchem [11]” is more than 2400 µg/mL; in “physchem [12]”, more than 2200 µg/mL; in “physchem [13]”, 820 µg/mL (≈ 908 µM).

These data come from ChEMBL document CHEMBL4390686, “Design, Synthesis, and Pharmacokinetic Evaluation of Phosphate and Amino Acid Ester Prodrugs for Improving the Oral Bioavailability of the HIV-1 Protease Inhibitor Atazanavir” (J Med Chem, 2019).
